# Measurements published in patent US10300155B2, “Alpha-synuclein ligands” (Washington University, priority 2015, dated 2019).
# Values joined by “and” are separate entries in the source; they are usually repeats but may differ in a detail not shown here. Identical values can stand only once. Like-named read-outs stand apart in the source and are kept apart here.
# Molecular target: T1, α-synuclein fibrils (Homo sapiens, UniProt P37840)
# T1 construct: made in house; host or cells: E. coli BL21(DE3)RIL
# Test: ThT competitive assay for α-synuclein fibrils (Table 1)
# Assay type: binding
# Settings: for EC50: α-synuclein fibrils
# Experimental: Upon binding to amyloid fibrils, a peak at approximately 440 nm becomes dominant with the fluorescent emission maximum shifted to 480 nm. This is accompanied by a strong enhancement of the fluorescence.
# α-Synuclein recombinant protein was produced in E. coli. […] Freshly transformed BL21 colonies were inoculated into 2 L baffled flasks containing 250 mL sterilized TB (1.2% bactotryptone, 2.4% yeast extract, 0.4% glycerol, 0.17 M KH2PO4, 0.72 M K2HPO4) with 50 μg/ml ampicillin, and incubated overnight at 37° C. with shaking.
# To determine the concentration of fibrils, the reaction mixture (100 μL) was centrifuged at 18,000×g for 10 minutes to separate fibrils from monomer. The α-synuclein monomer and other soluble proteins in the supernatant were removed, and the fibril pellet was resuspended in 100 μL solution of Tris-HCl (20 mM) and NaCl (100 mM). This fibril suspension was used in a bicinchoninic acid (BCA) protein assay along with a bovine serum albumin (BSA) standard curve to determine the concentration of fibrils in the 72 hour fibril reaction mixture.
# To prepare the fibrils for performing binding assays, the fibril reaction mixture prepared above was centrifuged at 18,000×g for 10 minutes.
# Once the ThT-α-synuclein saturation binding curve and dissociation constant (Kd) were determined the competitive assay for determining the binding affinity of various test compounds was conducted. […] The mixture was incubated at room temperature for 60 minutes on the shaking plate. The fluorescent intensity for each cell was measured by the fluorescence reader at λex and λem. The Ki value for each compound was calculated by the corresponding inhibition curve.
# The Ki values were derived from the EC50 values using the Cheng-Prusoff equation: Ki=EC50/(1+[radioligand]/Kd). See FIGS. 17.1-31.2 for the inhibition curves for each compound in the ThioT competitive binding assay.
# [1] = average, read-out: Ki (nM) α-syn (avg)
# [2] = individual determinations, read-out: Ki (nM) α-syn
# [3] = average, read-out: EC50 (nM) EC50 (avg)
# [4] = individual determinations, read-out: EC50 (nM) EC50
SMILES,Ki [1] [nM],Ki [2],EC50 [3] [nM],EC50 [4]
COc1ccc(/C=C/c2ccoc2)cc1 [TZ-34-27],551,1140 nM and 201 nM and 310 nM,1440,2990 nM and 527 nM and 812 nM
COc1ccc2nc(/C=C/c3ccccn3)ccc2c1 [TZ-36-34],193,193 nM,504,504 nM
COc1cccc2ccc(/C=C/c3ccccc3)nc12 [TZ-19-148],614,614 nM,–,–
O=C(Nc1ccc(OCCF)cc1)c1ccc(/C=C/c2ccncc2)cc1 [TZ-23-88],32.1,24.3 nM and 40 nM,83.8,63.5 nM and 104 nM
COc1ccc(/C=C/c2ccc(-c3nccs3)s2)cc1 [TZ-37-96],98.5,102 nM and 95 nM,–,–
COc1ccc(/C=C/c2cncs2)cc1 [TZ-34-35],323,313 nM and 333 nM,845,819 nM and 871 nM
C(=C\c1ccccc1)/CN1c2ccccc2Oc2ccccc21 [TZ-19-136],3060,3060 nM,–,–
O=[N+]([O-])c1ccc(/C=C/c2cccs2)cc1 [TZ-34-74],55,55 nM,145,145 nM
Brc1ccc(/C=C/c2cnccn2)cc1 [TZ-22-47-1],76.7,76.7 nM,–,–
